Measurements from patent US11980648B2, “Compositions including ginsenoside 20(S)-Rg3 and methods of using ginsenoside 20(S)-Rg3 to inhibit alpha herpesvirus” (MIDDLE TENNESSEE STATE UNIVERSITY, priority 2020, dated 2024).
Marks after values point to notes of the source that are not given here.

Key:
[1] = system: HSV-1; assay: Virus inhibition, HSV-1 on Vero cells (PrestoBlue); type: cell-based, herpes simplex virus type 1 (MacIntyre strain)
Procedure: (§1) Viruses and Quantification. Herpes simplex virus type 1 (HSV-1, MacIntyre strain, ATCC, VR-539) or herpes simplex virus type 2 (HSV-2, ATCC, VR-734) were used in these studies. Virus titer was determined by plaque assay. Briefly, following 2 hour-adsorption of various virus dilutions onto a Vero cell monolayer in a 24-well plate, the medium was removed and cells were overlaid with 1.5% carboxymethylcellulose (Sigma Chemical Company, St. Louis, Mo.) and incubated 48 hours at 37° C. with 5% CO2. After incubation, cells were fixed with methanol, stained with Giemsa (Sigma Chemical Company, St. Louis, Mo.) and plaques were counted. Each virus dilution was prepared in quadruplicate.
(§2) Cytotoxicity and Virus Inhibition. All ginsenosides, isomers, and protopanaxadiols were evaluated for toxic effects on Vero cells prior to anti-viral testing. Cells were seeded at 5000 cells/well in a black 96-well plate with clear bottom in a volume of 100 μL and allowed to attach for 24 hours. The P. ginseng compounds were prepared in DMSO at 100 μM and were taken through serial two-fold dilutions to determine the concentration when the rate of cell death was less than 10% compared to control, untreated cells. Each dilution was tested in three wells and all assays were repeated three times. Following a 48 hour-incubation at 37° C. in 5% CO2, 11 μL of PrestoBlue (Invitrogen, Carlsbad, Calif.) was added to each well and the plate was incubated for an additional 30 minutes. PrestoBlue determines cell viability by changing from blue to red as resazurin is reduced to resorufin by viable cells. Following the PrestoBlue incubation, fluorescence was determined by spectrophotometric reading using Soft Max Pro (Molecular Diagnostics, San Jose, Calif., USA).
(§3) For cytotoxicity testing, 4 μL of dilutions of the ginsenosides or protopanaxadiols were added to 396 μL of medium 199 and 100 μL of this mixture was added to each of three wells. For anti-viral testing, 4 μL of the non-toxic reagent and 4 μL of HSV-1 or HSV-2 diluted to an MOI of 0.1 were added to 392 μL of medium 199 and 100 μL of this mixture was added to each of three wells. Virus inhibition was determined by comparing the cell death of reagent-exposed cells with cell death of control cells only receiving virus. The 50% inhibitory concentration (IC50) was determined through a series of two-fold dilutions and calculation by linear regression analysis.

[2] = system: normal WI 38 cells; conditions: 120 μM; cited from earlier work
[3] = system: HSV-2; assay: Virus inhibition, HSV-2 on Vero cells (PrestoBlue); type: cell-based, herpes simplex virus type 2
Procedure: as §1, §2, §3

[4] = system: HSV-1; assay: Time studies of HSV-1 inhibition (PrestoBlue); type: cell-based, herpes simplex virus type 1; conditions: Rg3 50 μM
Procedure: Time Studies. For virus inhibition studies described above, reagent 20(S)-Rg3 and virus were added to cells simultaneously. To evaluate the potential mode of action of Rg3, various combinations of valacyclovir, Rg3 and HSV-1 were tested at different time periods. The following combinations were evaluated at both one hour and four hours: • Virus applied to cells first (for one hour or four hours), followed by addition of valacyclovir, Rg3 or both valacyclovir and Rg3 to the cells; • Valacyclovir or Rg3 or both valacyclovir and Rg3 applied to cells first (for one or four hours), followed by virus; • Valacyclovir or Rg3 incubated together with virus first for one or four hours then added to cells.
All procedures described for evaluation of virus inhibition were followed in identical fashion as outlined for the PrestoBlue procedure except valacyclovir was used at a constant concentration of 16 μM and 20(S)-Rg3 at 50 μM.

[5] = system: Vero cells; assay: Cytotoxicity on Vero cells (PrestoBlue); type: cell-based; conditions: for Percent Cell Death: African green monkey, 48 h
Procedure: Cells. Vero cells (American Type Culture Collection (ATCC), Manassas, VA, CCL-81) were maintained in medium 199 (Sigma Chemical Company, St. Louis, MO) that was supplemented with 8% fetal bovine serum (Invitrogen, Carlsbad, CA), 1.25 μg/mL fungizone (Invitrogen, Carlsbad, CA) and penicillin-streptomycin, 1000 U/mL and 1 mg/mL respectively (Sigma Chemical Company, St. Louis, MO). Cells were passed weekly using 0.1% trypsin (Sigma Chemical Company, St. Louis, MO) to detach the cells from the flasks. Cell quantification was done by trypan blue exclusion.
as §2, with “The P. ginseng compounds were prepared in DMSO at 100 μM and were taken through serial two-fold dilutions to determine the concentration when the rate of cell death was less than 10% compared to control, untreated cells.” left out
as §3

[6] = system: HSV-1; assay: Mouse susceptibility study, lethal HSV-1 infection; type: in vivo, BALB/c mice; conditions: for mortality: BALB/c mice, lethal dose HSV-1
Procedure: Mouse Susceptibility Study. BALB/c mice and the HSV-1, MacIntyre strain, ATCC VR-539, were used to determine the effectiveness of the 20(S)-Rg3 ginsenoside in preventing mortality in mice caused by infection of HSV-1. On day 1 of the study, four groups consisting of four mice each were injected intraperitoneally with 800,000 PFU of HSV-1, MacIntyre strain, ATCC VR-539. Three of the groups were treated daily with 1 mg/kg, 3 mg/kg, or 10 mg/kg intraperitoneal injections of the 20(S)-Rg3 ginsenoside and one group in the study received no treatment.

## CC(C)=CCC[C@](C)(O)C1CC[C@]2(C)C1[C@H](O)CC1[C@@]3(C)CC[C@H](O[C@@H]4OC(CO)[C@@H](O)[C@@H](O)C4O[C@@H]4OC(CO)[C@@H](O)[C@@H](O)C4O)C(C)(C)C3CC[C@]12C (stereo partly drawn) [20(S)-Rg3, 20(S)-ginsenoside-Rg3]
[1]; 50 μM, ± standard error
  Percent Inhibition of HSV-1: 82.3 ± 3.5%
[1]; 100 μM, ± standard error
  Percent Inhibition of HSV-1: nearly completely inhibited
[1]; Human alphaherpesvirus 1, Vero, 25 μM, ± standard error, read-out: Percent Inhibition of HSV-1
  inhibition at 25 µM: 11 ± 2.6%
[1]; Human alphaherpesvirus 1, Vero, 50 μM, ± standard error, read-out: Percent Inhibition of HSV-1
  inhibition at 50 µM: 80%
[1]; Human alphaherpesvirus 1, Vero, 100 μM, ± standard error, read-out: Percent Inhibition of HSV-1
  inhibition at 100 µM: 90.3 ± 9.9%
[1]; Human alphaherpesvirus 1, Vero, two-fold dilutions, linear regression, read-out: IC50 against HSV-1
  IC50: ~35 µM
[2]
  effect on normal WI 38 cells: no effect
[3]; 50 μM, ± standard error
  Percent Inhibition of HSV-2: 81.7 ± 10.3%
[3]; 100 μM, ± standard error
  Percent Inhibition of HSV-2: nearly completely inhibited
[3]; Human alphaherpesvirus 2, Vero, 25 μM, ± standard error, read-out: Percent Inhibition of HSV-2
  inhibition at 25 µM: 14.3 ± 3.3%
[3]; Human alphaherpesvirus 2, Vero, 50 μM, ± standard error, read-out: Percent Inhibition of HSV-2
  inhibition at 50 µM: 80%
[3]; Human alphaherpesvirus 2, Vero, 100 μM, ± standard error, read-out: Percent Inhibition of HSV-2
  inhibition at 100 µM: 115 ± 6.7%
[3]; Human alphaherpesvirus 2, Vero, two-fold dilutions, linear regression, read-out: IC50 against HSV-2
  IC50: ~35 µM
[4]; HSV-1 incubated with compound(s) 4 hours prior to addition to cells, valacyclovir 16 μM
  Percent Inhibition of HSV-1: over 110%
[4]; HSV-1 incubated with compound(s) 4 hours prior to addition to cells, valacyclovir 16 μM, listed as Rg3
  Percent Inhibition of HSV-1: 113.7±14.8%
[4]; cells pretreated with compound 4 hours prior to HSV-1 addition
  Percent Inhibition of HSV-1: 90.1±11.1%
[4]; virus present on cells 4 hours prior to compound addition
  Percent Inhibition of HSV-1: 50.7±4.4%
[5]; 50 μM
  Percent Cell Death: (13.0 ± 3.1) %
[5]; 100 μM
  Percent Cell Death: (14.3 ± 4.5) %
[5]; 125 μM
  Percent Cell Death: (22.3 ± 1.8) %
[5]; 250 μM
  Percent Cell Death: (28.7 ± 1.4) ^1) %
[5]; Chlorocebus sabaeus, Vero, read-out: IC50 against the host Vero cells (toxicity)
  IC50: ~400 µM
[6]; 1 mg/kg daily intraperitoneal
  mortality: 0%
[6]; 3 mg/kg daily intraperitoneal
  mortality: 0%
[6]; 10 mg/kg daily intraperitoneal
  mortality: 0%
[6]; daily 1 mg/kg, 3 mg/kg or 10 mg/kg groups, duration of the study
  signs of stress: never showed any signs of stress
